Source: patent US12558329B2 (New York University, priority 2021, dated 2026)
Entries after “also recorded” stand apart in the source; their conditions may differ.

Tests used:
human cells = assay: 18O2-GASSP labelling of human cells, untargeted polar metabolomics, with or without IOX1; format: cell-based; settings: A498 and SKNDZ cells, 3%, 1%, 0.2% 18O2, IOX1 24 hours
Protocol: To map the molecular fate of O2 in metabolic pathways in living cells, GASSP was used to carry out ^18O2 labelling in cell lines of different tissue origins at ^18O2 concentrations that represented physiological (3%), hypoxic (1%), and severely hypoxic (0.2%) oxygen tensions found in tissues and tumours^7. At the end of each run, polar metabolites were extracted and untargeted polar metabolomics using liquid chromatography-high resolution mass spectrometry (LC-MS) were carried out to identify metabolites labeled with ^18O.
A list of unique features identified by untargeted metabolomics that were >0.25% (natural abundance of ^18O is 0.2%) labelled by ^18O atoms in each cell line at each oxygen tension was generated. In addition, background signal was controlled by requiring that ^18O labeled peaks had to have a signal that was two-fold greater than naturally occurring isotopes found in non-labelled (^16O) metabolite cell extracts. To determine the proportion of unique ^18O labelled features that were due to dioxygenase activity, cells were treated with a pan-dioxygenase inhibitor (IOX1) at concentrations that inhibit iron-dependent dioxygenases, such as the HIF1α prolyl hydroxylases (FIGS. 5E-5F) and identified ^18O labelled polar metabolites. This list of ^18O metabolites was generated by identifying all features in the unlabelled samples, filtering these features against blank samples to remove background peaks, and calculating the fractional ^18O labelling with the assumption that a metabolite would have no more than three oxygen atoms labelled, followed by manual curation of labelled features (FIG. 1B and FIG. 5G). […] These ^18O-labelled features were termed the oxy-metabolome.
To determine the identities of the labeled metabolites, the list of ^18O labelled features was annotated to their corresponding unlabelled metabolites using retention time matching, tandem mass spectrometry (MS2) fragmentation patterns, and database searching.
(§1) All steps involved in setting up labelling with ^18O2 were performed at room temperature and inside a chemical fume hood. The procedure may vary depending on the type and number of tissue culture plates in the chamber and the amount of media in the plates. Users must test the system by using ^16O2:CO2:N2 or other unlabelled gases to optimize conditions for their needs and avoid consumption of costly labelled gases. Cells were treated with or without 5 μM MG132, 500 μM IOX1, 250 μM DFO, or 70 μM ascorbate, before placing tissue culture plates into the modular incubator chamber (MIC) containing a wireless oxygen sensor and a 15 cm dish of water to maintain humidity. Next, the clamps were closed to form an air-tight seal between the lid and platform of the MIC. […] N2 flushing was repeated for a total of three times, or until the sensor in the chamber stabilized at 0% O2 for 10 minutes.

MIAPACA2 cells = assay: 18O2-GASSP labelling of MIAPACA2 cells treated with MG132, IOX1, DFO or ascorbate; format: cell-based, human
Protocol: As additional controls, MIAPACA2 cells were treated with an iron chelator (DFO, FIG. 5E-5F), a proteasome inhibitor (MG132) to induce proteotoxic stress, and physiological levels of ascorbate, an antioxidant, to determine the effects of ROS on ^18O-labelling. Labelling of ^18O γ-butyrobetaine was blocked by IOX1 and DFO, consistent with the fact that trimethyllysine hydroxylase (TMLH) is an iron-dependent dioxygenase (FIGS. 7A-7D). […] Total levels of ^18O labelled methionine sulfoxide increased upon MG132 treatment and decreased following ascorbate treatment (FIGS. 7I-7M)^10.
as §1
Next, the inlet valve was opened and the ^18O2:5% CO2:N2 gaseous mixture was flushed into the system at a rate of 2.5 L/min. Subsequently, the outlet valve was immediately opened to allow gas flow out of the chamber, and to release the pressure in the system. The chamber was injected with the ^18O2:5% CO2:N2 gaseous mixture for 1 minute before the inlet and outlet valves were closed simultaneously. The chamber was allowed to equilibrate for 5 minutes. This process was repeated seven times, or until the desired oxygen concentration was reached and was stable. For 3%, 1%, and 0.2% ^18O2 labelling studies, the chamber was infused with 5%:5%:90%, 1.5%:5%:93.5%, and 0.5%:5%:94.5% ^18O2:CO2:N2, respectively. The ^18O2-infused MIC was then placed in a 37° C., 5% CO2 tissue culture incubator for 24 hours. The oxygen concentration in the chamber was monitored regularly. Oxygen measurements after 20 hours was not feasible due to the battery life of the sensor. At the end of the experiment, the chamber was opened inside a chemical fume hood before metabolite extraction.
For metabolomics, briefly, cells were washed in 4° C. 0.9% saline and metabolites were extracted with 46% methanol:23% H2O:[…] chloroform that contained a labelled amino acid standard mix (MSK-A2-1.2, Cambridge Isotope Laboratories, Inc.). Enzymatic assay samples were extracted using 80% methanol: 20% H2O that contained labelled amino acid standards. Extracts were placed into 1.5 mL Eppendorf tubes, vortexed at 4° C. for 10 min and centrifuged at 4° C. for 10 min at 17,200×g in a microcentrifuge. The aqueous phase was transferred to vials for GC-MS or Eppendorf tubes for LC-MS. Polar samples were evaporated in a SpeedVac and samples were resolved by GC-MS or LC-MS. Lipid samples were dried using a stream of N2 (for ^18O labelling studies) or air. Metabolite and lipid extracts were submitted to the NYULMC Metabolomics Core Resource Laboratory.
For polar metabolomics, the LC column was a Millipore ZIC-pHILIC (2.1×150 […], 5 μm bead size) coupled to a Dionex UltiMate 3000 system. The column oven temperature was held at 25° C. The flow rate was 100 μL/min, and the injection volume was 1 μL. Buffer A was 10 mM ammonium carbonate in water, pH 9, and Buffer B was neat acetonitrile. The gradient profile was 80-20% B (0-30 min), 20-80% B (30-31 min), and 80-80% B (31-42 min). MS Analyses were carried out on a Thermo Q Exactive HF mass spectrometer using a heated electrospray ionization (HESI) source. […]

Compound: O=C(O)c1ccc(O)c2ncccc12 [IOX1]
- 4-HMA 18O labeling (human cells): decreased
- 18O labelling of methionine (MIAPACA2 cells; 3%, 1%, 0.2% 18O2, 24 hours): sensitive; also recorded: blocked
- 18O labelling of γ-butyrobetaine (MIAPACA2 cells; 3%, 1%, 0.2% 18O2, 24 hours): sensitive; also recorded: blocked
- 18O labelling of 4-HMA (MIAPACA2 cells; MIAPACA2, 3%, 1%, 0.2% 18O2, 24 hours, 500 μM IOX1, 250 μM DFO): sensitive; also recorded: significantly attenuated
- 4-HMA levels (MIAPACA2 cells; MIAPACA2, 18O2 labelling, 24 hours, 500 μM IOX1, 250 μM DFO, 70 μM ascorbate): significantly attenuated
